Results published in patent publication EP1223171A1, “Antimicrobial 5-substituted-3-isothiazolone compounds and methods of use” (Rohm and Haas, priority 2001, dated 2002).
Values after ≈ are worked out from the molar mass of the structure shown.

Tests used:
Experiment in all cases: high resolution minimum inhibitory concentration (HRMIC) test
Assay type in all cases: cell-based
Escherichia coli 8739 = conditions: for better control versus Gram-negative (E. coli) bacteria than compound 6: ratio of MIC relative to compound 6 (MIC >1000 ppm)
Protocol: (§1) Biological Activity: certain compounds of the present invention were tested for activity against three microorganisms, Escherichia coli 8739 (Gram-negative bacterium) and Staphylococcus aureus 6538 (Gram-positive bacterium) and Aspergillus niger 16404.
(§2) The lowest concentration of test compound required to inhibit Staphylococcus aureus 6538, Escherichia coli 8739 and Aspergillus niger 16404 was determined by a high resolution minimum inhibitory concentration (HRMIC) test. Varying amounts of the test compounds were added to minimal salts glucose medium (see T. Maniatis, E.F. Fritsch and J. Sambrook, Molecular Cloning, p 68 (1982)) supplemented with 0.1% yeast extract (M9GY) in a 96-well microtiter plate. Ten-fold serial dilutions were performed on a Biomek™ 2000 Workstation to obtain a range of closely spaced concentrations of test compound as shown in Table 1 (based on dilutions of a 10,000 ppm active ingredient stock solution of the test compound). The plates were inoculated with cell suspension of inoculum and adjusted to provide about 10^6 CFU (colony forming units)/ml in each well. The microtiter plates were incubated at 30°C for 24 hours and then checked (optical density at 650 nm using a microplate reader) for the presence or absence of microbial growth in each well. […] Data reported (ppm active ingredient) are the average of multiple determinations (see Table 2).

Aspergillus niger 16404 = conditions: ppm active ingredient, M9GY medium, about 10^6 CFU/ml, 30°C for 24 hours, average of multiple determinations
Protocol: as §1, §2

[1] = tested on: Staphylococcus aureus 6538
Protocol: as §1, §2

| MIC (Aspergillus niger 16404) [µg/mL] | MIC (Escherichia coli 8739; Escherichia coli, 8739, ppm active ingredient, M9GY medium, about 10^6 CFU/ml, 30°C for 24 hours, average of multiple determinations, read-out: MIC (ppm) E. coli) [µg/mL] | MIC ([1]; Staphylococcus aureus, 6538, ppm active ingredient, M9GY medium, about 10^6 CFU/ml, 30°C for 24 hours, average of multiple determinations, read-out: MIC (ppm) S. aur) [µg/mL] | Structure (SMILES) | better control versus Gram-negative (E. coli) bacteria than compound 6 (Escherichia coli 8739) | better control versus Gram-positive (S. aur) bacteria than compound 6 ([1]; ratio of MIC relative to compound 6) [fold] |
| --- | --- | --- | --- | --- | --- |
|  |  |  | CCCCCCCCn1sc(Sc2cccc[n+]2[O-])c(Cl)c1=O [Compound 5, [4-chloro-2-n-octyl-3-isothiazolon-5-yl]-(1-oxypyridin-2-yl)sulfide] | at least 30 fold |  |
| 60 (≈ 250 µM) | 6 (≈ 25 µM) | 1 (≈ 4.16 µM) | Cn1sc(Sc2cccc[n+]2[O-])cc1=O [Compound 3, [2-methyl-3-isothiazolon-5-yl]-(1-oxypyridin-2-yl)sulfide] | ≥ 160 fold | 5 |
